Data taken from patent US12044683B2, “Methods and compositions concerning intestinal permeability” (THE REGENTS OF THE UNIVERSITY OF CALIFORNIA, priority 2018, dated 2024).
Values joined by “and” are separate entries in the source; they are usually repeats but may differ in a detail not shown here. Equal entries are not always repeated. Marks after values point to notes of the source that are not given here.

Experiments:
[1] = rats; Brown 1980; cited from earlier work
fruit flies = settings: fruit fly bodies viewed under a microscope after being given the dye; cited from earlier work
[2] = Solubility in resuspension solvents (NMP, water); type: physicochemical; settings: NMP and water (50% NMP in water used for resuspension)
[3] = studies supporting FDA approval for foods, drugs and cosmetics; cited from earlier work
[4] = Blue #1 measured by LC/MS in blood/plasma after enteral administration (intestinal permeability test); type: in vivo, human; design: Blue #1 in blood sample, 2 H / Blue #1 in blood sample, 8 H: unit not given here; settings: for Blue #1 in blood sample, 2 H: 2 H after dose; for Blue #1 in blood sample, 8 H: 8 H after dose
Protocol: High dose: 0.5 mg/kg—e.g, 35 mg in a 70 kg adult, administered as 35 ml of diluted food coloring solution (16 mg/mL diluted 1:16) was used. Five blood samples were drawn per subject (5 ml/draw): 0 hour-prior to dose, 1 hour, 2 hours, 4 hours, 8 hours. Four subjects enrolled. […]
Test subjects with clinically determined sepsis were given enteral Blue #1 at a designated time prior to scheduled blood draw. […] Sepsis was defined by the Surviving Sepsis Campaign [Crit Care Med. 2013; 41(2):580] (presence, probable or documented, of infection together with systemic manifestations such as fever, tachycardia, leukocytosis, hypotension, organ dysfunction, or decreased tissue perfusion). […] The medium dose was: 0.05 mg/kg—e.g. 3.5 mg in a 70 kg adult, administered as 35 mL of diluted food coloring solution (0.1 mg/mL), The low dose was: 0.005 mg/kg—e.g. 0.35 mg in a 70 kg, administered as 35 ml of diluted food coloring solution (0.01 mg/ml). Five blood draws per subject (5 ml/draw): 0 hour—prior to dose, 1 hour, 2 hours, 4 hours, and 8 hours, through clinically indicated, previously placed IV catheters. 14 subjects were used in this study.
Plasma concentration of Blue-1 is shown in relation to time in two patients (10-26-16) and (11-14-16) diagnosed with sepsis. Plasma preparation was done as shown in Example 5C below. Bzi-Arg_pNA was used as a STD. The data obtained is shown in Tables 2 and 3 below and in FIG. 3. The standard graph is FIG. 4.
Subjects were asked to drink a blue food coloring solution, (GATORADE for example) at 0.5 mg/kg (35 ml for a 70 kg human subject). Then a blood sample was drawn (e.g. 5 ml) at five different time periods for each subject: immediately before the drink (time zero), 1 hour, 2 hour, 4 hour and 8 hours after the drink. Subjects in Group 2 also had some of their abdominal fluid from the paracentesis saved to analyze for the presence of the dye, Plasma was prepared according to the method in the following example.
1) one volume of plasma was mixed with 3 volumes of (1:3→IPA:CAN+0.1% TFA);
2) after spin-down, 1800 μl of supernatant was evaporated (for example, by a Speed-Vac)
4) 10 μl of the re-suspended residue was injected onto a mass spectrophotometer for each analysis which corresponds to 25 μl of “pure plasma”. Quantitative analysis of the peak corresponding to the mass of Blue #1 was performed to see how much of the dye had been absorbed. Bzl-Arg_pNA is an example of a standard that worked with this assay.

[5] = Non-septic 1, ICU, no vasopressor, MELD 40, Eating
[6] = Non-septic 2, ICU, no vasopressor, MELD 33, Eating
[7] = Non-septic 3, ICU, no vasopressor, MELD 17, Eating
[8] = Non-septic 4, ICU/Pressor, NE 0.4, MELD 36, Eating
[9] = Normal 1, Normal, no vasopressor, MELD 6, NPO
[10] = Normal 2, Normal, no vasopressor, MELD 6, NPO
[11] = Normal 3, Normal, no vasopressor, MELD 6, NPO
[12] = Normal 4, Normal, no vasopressor, MELD 6, NPO
[13] = Septic 1, ICU/Pressor, NE 0.12, MELD 34, NPO × meds
[14] = Septic 3 (first line so labelled, r15), ICU/Pressor, NE 0.12, MELD 39, NPO × meds
[15] = Septic 3 (second line so labelled, r17), ICU/Pressor, Vaso 4, NE 0.09, PhE 25, MELD 35, NPO × meds
[16] = Septic 4, ICU/Pressor, NE 0.25, MELD 40, NPO × meds
[17] = Septic 5, ICU/Pressor, NE 0.02, MELD 23, Eating
[18] = Septic 6, ICU/Pressor, Vaso 2, MELD 43, NPO × meds
[19] = sepsis patient of Table 2, 1 hr after ingestion
[20] = sepsis patient of Table 2, 2 hr after ingestion
[21] = sepsis patient of Table 2, 4 hr after ingestion
[22] = sepsis patient of Table 2, 8 hr after ingestion
[23] = sepsis patient of Table 3, 1 hr after ingestion
[24] = sepsis patient of Table 3, 2 hr after ingestion
[25] = sepsis patient of Table 3, 4 hr after ingestion
[26] = sepsis patient of Table 3, 8 hr after ingestion

- Solubility [2]: soluble in both
- Blue #1 in blood sample, 2 H [4, 5]: 0.5
- Blue #1 in blood sample, 8 H [4, 5]: 0.15
- Blue #1 in blood sample, 2 H [4, 6]: <0.05
- Blue #1 in blood sample, 8 H [4, 6]: <0.05
- Blue #1 in blood sample, 2 H [4, 7]: <0.05
- Blue #1 in blood sample, 8 H [4, 7]: <0.05
- Blue #1 in blood sample, 2 H [4, 8]: <0.05
- Blue #1 in blood sample, 8 H [4, 8]: <0.05
- Blue #1 in blood sample, 2 H [4, 9]: <0.05
- Blue #1 in blood sample, 8 H [4, 9]: <0.05
- Blue #1 in blood sample, 2 H [4, 10]: <0.05
- Blue #1 in blood sample, 8 H [4, 10]: <0.05
- Blue #1 in blood sample, 2 H [4, 11]: <0.05
- Blue #1 in blood sample, 8 H [4, 11]: <0.05
- Blue #1 in blood sample, 2 H [4, 12]: <0.05
- Blue #1 in blood sample, 8 H [4, 12]: <0.05
- Blue #1 in blood sample, 2 H [4, 13]: 0.5
- Blue #1 in blood sample, 8 H [4, 13]: 0.3
- Blue #1 in blood sample, 2 H [4, 14]: 0.7
- Blue #1 in blood sample, 8 H [4, 14]: 0.5
- Blue #1 in blood sample, 2 H [4, 15]: <0.05
- Blue #1 in blood sample, 8 H [4, 15]: <0.05
- Blue #1 in blood sample, 2 H [4, 16]: 2.5
- Blue #1 in blood sample, 8 H [4, 16]: 4.6**
- Blue #1 in blood sample, 2 H [4, 17]: 0.4
- Blue #1 in blood sample, 8 H [4, 17]: 0.05
- Blue #1 in blood sample, 2 H [4, 18]: 1
- Blue #1 in blood sample, 8 H [4, 18]: 1.5
- Detectability of Blue #1 by LC/MS (FIG. 2, upper graph) ([4]; non-septic patient): not detectable
- Absorption into blood in normal subjects ([4]; normal subjects (four enrolled), high dose 0.5 mg/kg oral, up to 8 hours later): wasn't any detectable absorption
- Plasma concentration of Blue-1, Average [4, 19]: 1.41 nM (nM)
- Plasma concentration of Blue-1, Average [4, 20]: 2.59 nM (nM)
- Plasma concentration of Blue-1, Average [4, 21]: 2.03 nM (nM)
- Plasma concentration of Blue-1, Average [4, 22]: 2.18 nM (nM)
- Plasma concentration of Blue-1, Average [4, 23]: 1.17 nM (nM)
- Plasma concentration of Blue-1, Average [4, 24]: 2.29 nM (nM)
- Plasma concentration of Blue-1, Average [4, 25]: 2.67 nM (nM)
- Plasma concentration of Blue-1, Average [4, 26]: 3.37 nM (nM)
- Detectability of Blue #1 by LC/MS (FIG. 2, lower graph) ([4]; septic patient): detectable
SMILES: CCN(Cc1cccc(S(=O)(=O)[O-])c1)c1ccc(C(=C2C=CC(=[N+](CC)Cc3cccc(S(=O)(=O)[O-])c3)C=C2)c2ccccc2S(=O)(=O)[O-])cc1.[Na+].[Na+] [Blue #1, disodium;2-[[4-[ethyl-[(3-sulfonatophenyl)methyl]amino]phenyl]-[4-[ethyl-[(3-sulfonatophenyl)methyl]azaniumlidene]cyclohexa-2,5-dien-1-ylidene]methyl]benzenesulfonate]
- Share of the dye absorbed into the blood from the intestine [1]: more than 0.02%
- Absorption by fruit flies (fruit flies): not to be absorbed
- Acceptable daily intake [3]: 12 mg/kg body weight/day
- Plasma concentration of Blue-1, replicates A, B, C [4, 19]: 1.81 fMoles/μl (nM) and 1.13 fMoles/μl (nM) and 1.29 fMoles/μl (nM)
- Plasma concentration of Blue-1, replicates A, B, C [4, 20]: 2.17 fMoles/μl (nM) and 2.89 fMoles/μl (nM) and 2.72 fMoles/μl (nM)
- Plasma concentration of Blue-1, replicates A, B, C [4, 21]: 2.30 fMoles/μl (nM) and 1.75 fMoles/μl (nM) and 2.05 fMoles/μl (nM)
- Plasma concentration of Blue-1, replicates A, B, C [4, 22]: 2.44 fMoles/μl (nM) and 2.04 fMoles/μl (nM) and 2.05 fMoles/μl (nM)
- Plasma concentration of Blue-1, replicates A, B, C [4, 23]: 1.09 fMoles/μl (nM) (2×) and 1.33 fMoles/μl (nM)
- Plasma concentration of Blue-1, replicates A, B, C [4, 24]: 2.40 fMoles/μl (nM) and 2.28 fMoles/μl (nM) and 2.18 fMoles/μl (nM)
- Plasma concentration of Blue-1, replicates A, B, C [4, 25]: 2.53 fMoles/μl (nM) and 2.29 fMoles/μl (nM) and 3.19 fMoles/μl (nM)
- Plasma concentration of Blue-1, replicates A, B, C [4, 26]: 3.50 fMoles/μl (nM) and 3.04 fMoles/μl (nM) and 358 fMoles/μl (nM)
